Results on 28 compounds are retold here after patent US12344600B2, “c-Myc mRNA translation modulators and uses thereof in the treatment of cancer” (Anima Biotech Inc., priority 2022, dated 2025).

This experiment concerns c-Myc. In words: c-Myc immunofluorescence assay. Type of experiment: cell-based, human. The note with it: A549 cells, 24 hours, anti-c-Myc immunofluorescence. Summed up:
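A549 NSCLC cells grown 48 h, then treated 24 h with increasing compound concentrations; fixed in 4% paraformaldehyde, stained with anti-c-Myc antibody plus fluorescent secondary and DAPI. Per-cell c-Myc fluorescence quantified by high-content imaging at 20×; dose-response fitted by logistic regression to give EC50.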
As for `COc1ccc(-c2noc(N3CCC(C(=O)NCC4CCN(Cc5cccc(C)c5)C4)CC3)n2)cc1` (stereo not shown) [Compound 349, 1-(3-(4-methoxyphenyl)-1,2,4-oxadiazol-5-yl)-N-((1-(3-methylbenzyl)pyrrolidin-3-yl)methyl)piperidine-4-carboxamide], the “Myc Efficacy (−LogEC50)” value was “++ (++ ≥5 and <6)”.

As to `COc1ccc(-c2noc(N3CCC(C(=O)NCC4CCN(Cc5ncccc5C)C4)CC3)n2)cc1` (stereo not shown) [Compound 350, 1-(3-(4-methoxyphenyl)-1,2,4-oxadiazol-5-yl)-N-((1-((3-methylpyridin-2-yl)methyl)pyrrolidin-3-yl)methyl)piperidine-4-carboxamide], the “Myc Efficacy (−LogEC50)” value is “++ (++ ≥5 and <6)”.

Consider `COc1ccc(-c2noc(N3CCC(C(=O)NCC4CCN(Cc5ccc(C)nc5)C4)CC3)n2)cc1` (stereo not shown) [Compound 351, 1-(3-(4-methoxyphenyl)-1,2,4-oxadiazol-5-yl)-N-((1-((6-methylpyridin-3-yl)methyl)pyrrolidin-3-yl)methyl)piperidine-4-carboxamide], for which the “Myc Efficacy (−LogEC50)” value is “++ (++ ≥5 and <6)”.

For `COc1ccc(-c2noc(N3CCC(C(=O)NCC4CCN(Cc5ccns5)C4)CC3)n2)cc1` (stereo not shown) [Compound 352, N-((1-(isothiazol-5-ylmethyl)pyrrolidin-3-yl)methyl)-1-(3-(4-methoxyphenyl)-1,2,4-oxadiazol-5-yl)piperidine-4-carboxamide], the “Myc Efficacy (−LogEC50)” value was “++ (++ ≥5 and <6)”.

For the compound `COc1ccc(-c2noc(N3CCC(C(=O)NCC4CCN(CC5CCN(C)CC5)C4)CC3)n2)cc1` (stereo not shown) [Compound 353, 1-(3-(4-methoxyphenyl)-1,2,4-oxadiazol-5-yl)-N-((1-((1-methylpiperidin-4-yl)methyl)pyrrolidin-3-yl)methyl)piperidine-4-carboxamide], the “Myc Efficacy (−LogEC50)” value was “++ (++ ≥5 and <6)”.

On to `COc1ccc(-c2noc(N3CCC(C(=O)NCC4CCN(CC5CCSCC5)C4)CC3)n2)cc1` (stereo not shown) [Compound 354, 1-(3-(4-methoxyphenyl)-1,2,4-oxadiazol-5-yl)-N-((1-((tetrahydro-2H-thiopyran-4-yl)methyl)pyrrolidin-3-yl)methyl)piperidine-4-carboxamide], for which the “Myc Efficacy (−LogEC50)” value was “++ (++ ≥5 and <6)”.

Regarding `COc1ccc(-c2noc(N3CCC(C(=O)NCC4CCN(CC5CCOCC5)C4)CC3)n2)cc1` (stereo not shown) [Compound 355, 1-(3-(4-methoxyphenyl)-1,2,4-oxadiazol-5-yl)-N-((1-((tetrahydro-2H-pyran-4-yl)methyl)pyrrolidin-3-yl)methyl)piperidine-4-carboxamide], the “Myc Efficacy (−LogEC50)” value is “+ (+ >3 and <5)”.

`COc1ccc(-c2noc(N3CCC(C(=O)NCC4CCN(Cc5cccnc5)C4)CC3)n2)cc1` (stereo not shown) [Compound 356, 1-(3-(4-methoxyphenyl)-1,2,4-oxadiazol-5-yl)-N-((1-(pyridin-3-ylmethyl)pyrrolidin-3-yl)methyl)piperidine-4-carboxamide]: the “Myc Efficacy (−LogEC50)” value is “++ (++ ≥5 and <6)”.

As for `COc1ccc(-c2noc(N3CCC(C(=O)NCC4CCN(Cc5ccsc5)C4)CC3)n2)cc1` (stereo not shown) [Compound 357, 1-(3-(4-methoxyphenyl)-1,2,4-oxadiazol-5-yl)-N-((1-(thiophen-3-ylmethyl)pyrrolidin-3-yl)methyl)piperidine-4-carboxamide], the “Myc Efficacy (−LogEC50)” value is “++ (++ ≥5 and <6)”.

Consider `COc1ccc(-c2noc(N3CCC(C(=O)NCC4CCN(Cc5ccccc5F)C4)CC3)n2)cc1` (stereo not shown) [Compound 358, N-((1-(2-fluorobenzyl)pyrrolidin-3-yl)methyl)-1-(3-(4-methoxyphenyl)-1,2,4-oxadiazol-5-yl)piperidine-4-carboxamide], for which the “Myc Efficacy (−LogEC50)” value was “++ (++ ≥5 and <6)”.

With `COc1ccc(-c2noc(N3CCC(C(=O)NCC4CCN(Cc5ccncc5F)C4)CC3)n2)cc1` (stereo not shown) [Compound 359, N-((1-((3-fluoropyridin-4-yl)methyl)pyrrolidin-3-yl)methyl)-1-(3-(4-methoxyphenyl)-1,2,4-oxadiazol-5-yl)piperidine-4-carboxamide], the “Myc Efficacy (−LogEC50)” value was “++ (++ ≥5 and <6)”.

For `COc1ccc(-c2noc(N3CCC(C(=O)NCC4CCN(Cc5cscn5)C4)CC3)n2)cc1` (stereo not shown) [Compound 360, 1-(3-(4-methoxyphenyl)-1,2,4-oxadiazol-5-yl)-N-((1-(thiazol-4-ylmethyl)pyrrolidin-3-yl)methyl)piperidine-4-carboxamide], the “Myc Efficacy (−LogEC50)” value is “+ (+ >3 and <5)”.

As to `COc1ccc(-c2noc(N3CCC(C(=O)NCC4CCN(CC5CCCCO5)C4)CC3)n2)cc1` (stereo not shown) [Compound 361, 1-(3-(4-methoxyphenyl)-1,2,4-oxadiazol-5-yl)-N-((1-((tetrahydro-2H-pyran-2-yl)methyl)pyrrolidin-3-yl)methyl)piperidine-4-carboxamide], the “Myc Efficacy (−LogEC50)” value is “++ (++ ≥5 and <6)”.

As for `COc1ccc(-c2noc(N3CCC(C(=O)NCC4CCN(CCO)C4)CC3)n2)cc1` (stereo not shown) [Compound 362, N-((1-(2-hydroxyethyl)pyrrolidin-3-yl)methyl)-1-(3-(4-methoxyphenyl)-1,2,4-oxadiazol-5-yl)piperidine-4-carboxamide], the “Myc Efficacy (−LogEC50)” value is “+ (+ >3 and <5)”.

On to `COc1ccc(-c2noc(N3CCC(C(=O)NCC4CCN(Cc5cccn5C)C4)CC3)n2)cc1` (stereo not shown) [Compound 363, 1-(3-(4-methoxyphenyl)-1,2,4-oxadiazol-5-yl)-N-((1-((1-methyl-1H-pyrrol-2-yl)methyl)pyrrolidin-3-yl)methyl)piperidine-4-carboxamide], for which the “Myc Efficacy (−LogEC50)” value was “+ (+ >3 and <5)”.

Consider `COc1ccc(-c2noc(N3CCC(C(=O)NCC4CCN(Cc5nccs5)C4)CC3)n2)cc1` (stereo not shown) [Compound 364, 1-(3-(4-methoxyphenyl)-1,2,4-oxadiazol-5-yl)-N-((1-(thiazol-2-ylmethyl)pyrrolidin-3-yl)methyl)piperidine-4-carboxamide], for which the “Myc Efficacy (−LogEC50)” value is “+ (+ >3 and <5)”.

Take `COc1ccc(-c2noc(N3CCC(C(=O)NCC4CCN(Cc5cncc(C)c5)C4)CC3)n2)cc1` (stereo not shown) [Compound 365, 1-(3-(4-methoxyphenyl)-1,2,4-oxadiazol-5-yl)-N-((1-((5-methylpyridin-3-yl)methyl)pyrrolidin-3-yl)methyl)piperidine-4-carboxamide]: the “Myc Efficacy (−LogEC50)” value was “++ (++ ≥5 and <6)”.

In the case of `COc1ccc(-c2noc(N3CCC(C(=O)NCC4CCN(CCF)C4)CC3)n2)cc1` (stereo not shown) [Compound 366, N-((1-(2-fluoroethyl)pyrrolidin-3-yl)methyl)-1-(3-(4-methoxyphenyl)-1,2,4-oxadiazol-5-yl)piperidine-4-carboxamide], the “Myc Efficacy (−LogEC50)” value is “+ (+ >3 and <5)”.

In the case of `COc1ccc(-c2noc(N3CCC(C(=O)NCC4CCN(CC(F)F)C4)CC3)n2)cc1` (stereo not shown) [Compound 367, N-((1-(2,2-difluoroethyl)pyrrolidin-3-yl)methyl)-1-(3-(4-methoxyphenyl)-1,2,4-oxadiazol-5-yl)piperidine-4-carboxamide], the “Myc Efficacy (−LogEC50)” value is “+ (+ >3 and <5)”.

Take `COc1ccc(-c2noc(N3CCC(C(=O)NCC4CCN(CC5CC5C)C4)CC3)n2)cc1` (stereo not shown) [Compound 368, 1-(3-(4-methoxyphenyl)-1,2,4-oxadiazol-5-yl)-N-((1-((2-methylcyclopropyl)methyl)pyrrolidin-3-yl)methyl)piperidine-4-carboxamide]: the “Myc Efficacy (−LogEC50)” value was “++ (++ ≥5 and <6)”.

`COc1ccc(-c2noc(N3CCC(C(=O)NCC4CCN(C[C@@H]5CCCN5C)C4)CC3)n2)cc1` (stereo partly drawn) [Compound 369, 1-(3-(4-methoxyphenyl)-1,2,4-oxadiazol-5-yl)-N-((1-(((S)-1-methylpyrrolidin-2-yl)methyl)pyrrolidin-3-yl)methyl)piperidine-4-carboxamide]: the “Myc Efficacy (−LogEC50)” value is “+ (+ >3 and <5)”.

As to `COc1ccc(-c2noc(N3CCC(C(=O)NCC4CCN(C5CCOC5)C4)CC3)n2)cc1` (stereo not shown) [Compound 370, 1-(3-(4-methoxyphenyl)-1,2,4-oxadiazol-5-yl)-N-((1-(tetrahydrofuran-3-yl)pyrrolidin-3-yl)methyl)piperidine-4-carboxamide], the “Myc Efficacy (−LogEC50)” value was “+ (+ >3 and <5)”.

On to `COc1ccc(-c2noc(N3CCC(C(=O)NCC4CCN(CC5(C)COC5)C4)CC3)n2)cc1` (stereo not shown) [Compound 371, 1-(3-(4-methoxyphenyl)-1,2,4-oxadiazol-5-yl)-N-((1-((3-methyloxetan-3-yl)methyl)pyrrolidin-3-yl)methyl)piperidine-4-carboxamide], for which the “Myc Efficacy (−LogEC50)” value was “+ (+ >3 and <5)”.

As to `COc1ccc(-c2noc(N3CCC(C(=O)NCC4CCN(Cc5cccs5)C4)CC3)n2)cc1` (stereo not shown) [Compound 372, 1-(3-(4-methoxyphenyl)-1,2,4-oxadiazol-5-yl)-N-((1-(thiophen-2-ylmethyl)pyrrolidin-3-yl)methyl)piperidine-4-carboxamide], the “Myc Efficacy (−LogEC50)” value was “++ (++ ≥5 and <6)”.

For `COc1ccc(-c2noc(N3CCC(C(=O)NCC4CCN(Cc5cnsc5)C4)CC3)n2)cc1` (stereo not shown) [Compound 373, N-((1-(isothiazol-4-ylmethyl)pyrrolidin-3-yl)methyl)-1-(3-(4-methoxyphenyl)-1,2,4-oxadiazol-5-yl)piperidine-4-carboxamide], the “Myc Efficacy (−LogEC50)” value is “++ (++ ≥5 and <6)”.

For the compound `COc1ccc(-c2noc(N3CCC(C(=O)NCC4CCN(CC(C)C)C4)CC3)n2)cc1` (stereo not shown) [Compound 374, N-((1-isobutylpyrrolidin-3-yl)methyl)-1-(3-(4-methoxyphenyl)-1,2,4-oxadiazol-5-yl)piperidine-4-carboxamide], the “Myc Efficacy (−LogEC50)” value is “+ (+ >3 and <5)”.

Regarding `COc1ccc(-c2noc(N3CCC(C(=O)NCC4CCN(CC5CCCOC5)C4)CC3)n2)cc1` (stereo not shown) [Compound 375, 1-(3-(4-methoxyphenyl)-1,2,4-oxadiazol-5-yl)-N-((1-((tetrahydro-2H-pyran-3-yl)methyl)pyrrolidin-3-yl)methyl)piperidine-4-carboxamide], the “Myc Efficacy (−LogEC50)” value was “++ (++ ≥5 and <6)”.

Turning to `CCN1CCC(CNC(=O)C2CCN(c3nc(-c4ccc(OC)cc4)no3)CC2)C1` (stereo not shown) [Compound 376, N-((1-ethylpyrrolidin-3-yl)methyl)-1-(3-(4-methoxyphenyl)-1,2,4-oxadiazol-5-yl)piperidine-4-carboxamide], the “Myc Efficacy (−LogEC50)” value was “− (− ≤3)”.
